Results as given in article PMC9516332 (Frontiers in Oncology, 2022).
Where two headings read alike, the source gives them in different places.

Columns and labels:
Assay in all cases: Kinase panel profiling at 1 µmol/L (MSA or IMAP), percentage inhibition
Format in all cases: biochemical
[1] = molecular target: panel of 255 wild-type kinases (Homo sapiens, UniProt P07947); conditions: read-out: %-inhibition at 1 µmol/L, YES
[2] = molecular target: T1, panel of 255 wild-type kinases (Homo sapiens, UniProt Q9H093); conditions: read-out: %-inhibition, NuaK2
T1 sequence (Q9H093 1-628): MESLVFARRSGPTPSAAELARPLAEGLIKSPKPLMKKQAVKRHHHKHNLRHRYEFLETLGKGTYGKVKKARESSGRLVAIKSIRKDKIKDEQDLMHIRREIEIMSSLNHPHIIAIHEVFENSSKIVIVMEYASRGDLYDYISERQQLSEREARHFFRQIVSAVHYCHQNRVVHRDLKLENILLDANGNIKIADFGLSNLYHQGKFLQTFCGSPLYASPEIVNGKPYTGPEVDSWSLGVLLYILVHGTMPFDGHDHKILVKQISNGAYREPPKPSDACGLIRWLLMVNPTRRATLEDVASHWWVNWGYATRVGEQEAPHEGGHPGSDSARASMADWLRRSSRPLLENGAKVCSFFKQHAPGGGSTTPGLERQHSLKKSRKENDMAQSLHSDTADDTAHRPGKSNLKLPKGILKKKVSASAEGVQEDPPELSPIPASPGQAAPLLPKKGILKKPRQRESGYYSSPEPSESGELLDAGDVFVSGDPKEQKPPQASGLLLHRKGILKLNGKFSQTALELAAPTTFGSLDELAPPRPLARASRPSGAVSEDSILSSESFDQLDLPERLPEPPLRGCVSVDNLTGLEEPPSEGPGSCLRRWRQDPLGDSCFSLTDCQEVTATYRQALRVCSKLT

[3] = molecular target: T2, panel of 255 wild-type kinases (Homo sapiens, UniProt Q05513); conditions: read-out: %-inhibition at 1 µmol/L, PKCζ
T2 sequence (Q05513 1-592): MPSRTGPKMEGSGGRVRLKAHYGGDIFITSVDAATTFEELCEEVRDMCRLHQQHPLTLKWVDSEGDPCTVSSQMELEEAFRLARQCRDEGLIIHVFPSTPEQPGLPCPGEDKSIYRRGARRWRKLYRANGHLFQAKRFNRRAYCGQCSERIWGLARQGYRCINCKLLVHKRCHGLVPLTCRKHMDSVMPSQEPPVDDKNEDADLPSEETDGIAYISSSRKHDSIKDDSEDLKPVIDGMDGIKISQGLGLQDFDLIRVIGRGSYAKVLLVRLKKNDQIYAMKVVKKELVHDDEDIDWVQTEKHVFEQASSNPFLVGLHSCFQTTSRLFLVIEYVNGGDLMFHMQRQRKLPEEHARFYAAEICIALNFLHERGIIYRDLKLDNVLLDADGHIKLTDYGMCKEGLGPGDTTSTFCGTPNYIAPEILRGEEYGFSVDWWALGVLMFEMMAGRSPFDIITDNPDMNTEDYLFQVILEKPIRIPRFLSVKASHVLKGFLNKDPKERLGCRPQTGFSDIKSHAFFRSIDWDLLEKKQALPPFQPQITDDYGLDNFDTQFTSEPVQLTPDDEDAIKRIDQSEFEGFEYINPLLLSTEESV

[4] = molecular target: panel of 255 wild-type kinases (Homo sapiens, UniProt P04626); conditions: read-out: %-inhibition at 1 µmol/L, HER2
[5] = molecular target: panel of 255 wild-type kinases (Homo sapiens, UniProt P07949); conditions: read-out: %-inhibition at 1 µmol/L, RET
[6] = molecular target: panel of 255 wild-type kinases (Homo sapiens, UniProt P19525); conditions: read-out: %-inhibition at 1 µmol/L, PKR
[7] = molecular target: panel of 255 wild-type kinases (Homo sapiens, UniProt Q15418); conditions: read-out: %-inhibition at 1 µmol/L, RSK1
[8] = molecular target: panel of 255 wild-type kinases (Homo sapiens, UniProt P29597); conditions: read-out: %-inhibition at 1 µmol/L, TYK2
[9] = molecular target: panel of 255 wild-type kinases (Homo sapiens, UniProt P10721); conditions: read-out: %-inhibition at 1 µmol/L, KIT
[10] = molecular target: panel of 255 wild-type kinases (Homo sapiens, UniProt Q16288); conditions: read-out: %-inhibition at 1 µmol/L, TRKC
[11] = molecular target: panel of 255 wild-type kinases (Homo sapiens, UniProt P22612); conditions: read-out: %-inhibition at 1 µmol/L, PKACγ
[12] = molecular target: panel of 255 wild-type kinases (Homo sapiens, UniProt Q9H2X6); conditions: read-out: %-inhibition at 1 µmol/L, HIPK2
[13] = kinase YES, 1 µmol/L single concentration
[14] = NuaK2, 1 µmol/L single concentration
[15] = kinase PKCζ, 1 µmol/L single concentration
[16] = kinase HER2, 1 µmol/L single concentration
[17] = kinase RET, 1 µmol/L single concentration
[18] = kinase PKR, 1 µmol/L single concentration
[19] = kinase RSK1, 1 µmol/L single concentration
[20] = kinase TYK2, 1 µmol/L single concentration
[21] = kinase KIT, 1 µmol/L single concentration
[22] = kinase TRKC, 1 µmol/L single concentration
[23] = kinase PKACγ, 1 µmol/L single concentration
[24] = kinase HIPK2, 1 µmol/L single concentration

Row | Structure (SMILES) | inhibition at 1 µM [1, 13] | inhibition at 1 µM [2, 14] | inhibition at 1 µM [3, 15] | inhibition at 1 µM [4, 16] | inhibition at 1 µM [5, 17] | inhibition at 1 µM [6, 18] | inhibition at 1 µM [7, 19] | inhibition at 1 µM [8, 20] | inhibition at 1 µM [9, 21] | inhibition at 1 µM [10, 22] | inhibition at 1 µM [11, 23] | inhibition at 1 µM [12, 24] | other results
1 | Cn1cnc2c(F)c(Nc3ccc(Br)cc3Cl)c(C(=O)NOCCO)cc21 [selumetinib] | 14% | 6% | 1% | 3% | 38% | 1.47% | -8% | -3% | -2.4% | 10% | -4% | 2.71% | 
2 | COc1ccc(CN2C3CC2CN(c2ccc(-c4cc(OCC(C)(C)O)cn5ncc(C#N)c45)cn2)C3)cn1 [selpercatinib] | 84% | 4% | -1% | 2.47% | 102% | 0.94% | 51% | 3.39% | 54% | 10% | -2.63% | 0.223% | 
3 | O=C(Nc1cnn2ccc(N3CCC[C@@H]3c3cc(F)ccc3F)nc12)N1CC[C@H](O)C1 [larotrectinib] | -2.66% | 0.385% | 0.558% | -2.32% | 1.71% | -2.17% | -3.46% | -0.368% | -5% | 101% | -4% | -0.39% | 
4 | CCN1C(=O)N(c2c(F)c(OC)cc(OC)c2F)Cc2cnc3[nH]c(CN4CCOCC4)cc3c21 [pemigatinib] | 24% | 1.46% | -0.0817% | -4% | 55% | 85% | -1.79% | -6.39% |  | -0.168% | -3.56% | 2.55% | inhibition at 1 µM [9]: 23%
5 | CNC(=O)c1ccc(-c2cnc3ncc(Cc4ccc5ncccc5c4)n3n2)cc1F [capmatinib] |  |  |  |  |  |  |  |  |  |  |  |  | inhibition at 1 µM [1]: 1.32%; inhibition at 1 µM [2]: -1%; inhibition at 1 µM [3]: 0.759%; inhibition at 1 µM [4]: 9%; inhibition at 1 µM [5]: 11%; inhibition at 1 µM [6]: 7%; inhibition at 1 µM [7]: 1.52%; inhibition at 1 µM [8]: 0.148%; inhibition at 1 µM [9]: 4%; inhibition at 1 µM [10]: 19%; inhibition at 1 µM [11]: -1.43%; inhibition at 1 µM [12]: 0.264%
6 | C=CC(=O)N1CCC([C@@H]2CCNc3c(C(N)=O)c(-c4ccc(Oc5ccccc5)cc4)nn32)CC1 [zanubrutinib] |  | 0.524% | 0.367% | 69% | 16% | -1.41% | -2.79% | -2.32% | -4.47% | -3.55% | -4.62% | -0.321% | 
7 | C[C@H]1Oc2cc(cnc2N)-c2c(nn(C)c2C#N)CN(C)C(=O)c2ccc(F)cc21 [lorlatinib] | 28% | 30% | 17% | 21% | 10% | 0.666% | 2.31% | 5% | 4.22% |  | -6% | -2% | 
8 | CCN1CCN(c2ccc(Nc3cc(N(C)C(=O)Nc4c(Cl)c(OC)cc(OC)c4Cl)ncn3)cc2)CC1 [infigratinib] | 77% | 9% | 3.18% | 4.73% |  | 76% | -3% | -3% |  | 6% | -0.0435% | -0.912% | 
9 | COC(=O)N[C@@H](C)CNc1nccc(-c2cn(C(C)C)nc2-c2cc(Cl)cc(NS(C)(=O)=O)c2F)n1 [encorafenib] | 3.55% | 3.35% | 19% | 4.47% | -10% |  | -2% | -6% | -1.43% | -0.54% | -2.32% | 0.238% | 
10 | CCc1nc(C(N)=O)c(Nc2ccc(N3CCC(N4CCN(C)CC4)CC3)c(OC)c2)nc1NC1CCOCC1 [gilteritinib] | 98% | 73% | 21% | 15% | 100% |  | 54% | 70% | 71% | 100% | 5.41% | 84% | 
11 | CN1CCN(c2ccc(C(=O)Nc3n[nH]c4ccc(Cc5cc(F)cc(F)c5)cc34)c(NC3CCOCC3)c2)CC1 [entrectinib] | 98% | 95% | 17% | 22% |  | 3.49% |  | 95% | 21% | 100% | -4.58% | 8% | 
12 | COc1cc2ncnc(Nc3ccc(F)c(Cl)c3)c2cc1NC(=O)/C=C/CN1CCCCC1 [dacomitinib] |  | 2% | 24% | 100% | 40% | 3.25% | 4.37% | 6.51% | -10% | -0.0882% | 12% | 4.76% | 
13 | CCn1c(=O)c(-c2cc(NC(=O)Nc3ccccc3)c(F)cc2Br)cc2cnc(NC)cc21 [ripretinib] | 81% | 1.36% | 15% | 5.51% | 94% | -6% | 8% | 4.46% |  | 54% | 2.69% | 0.0334% | 
